Data: ChEMBL document CHEMBL3525904, “Effect of structural variation on aldehyde oxidase-catalyzed oxidation of zoniporide” (Drug Metab Dispos, 2012)
One block for each molecule: values may come before it.

How the values were obtained:
Format in all cases: ADME, subcellular
Aldehyde oxidase [1] = target: T1, Aldehyde oxidase (Homo sapiens, UniProt Q06278); assay: Drug level in human liver S9 fraction assessed as aldehyde oxidase-mediated compound formation treated with 10 uM N-carbamimidoyl-5-cyclopropyl-1-(quinolin-4-yl)-1H-pyrazole-4-carboxamide by spectrometry
T1 sequence (Q06278 whole entry): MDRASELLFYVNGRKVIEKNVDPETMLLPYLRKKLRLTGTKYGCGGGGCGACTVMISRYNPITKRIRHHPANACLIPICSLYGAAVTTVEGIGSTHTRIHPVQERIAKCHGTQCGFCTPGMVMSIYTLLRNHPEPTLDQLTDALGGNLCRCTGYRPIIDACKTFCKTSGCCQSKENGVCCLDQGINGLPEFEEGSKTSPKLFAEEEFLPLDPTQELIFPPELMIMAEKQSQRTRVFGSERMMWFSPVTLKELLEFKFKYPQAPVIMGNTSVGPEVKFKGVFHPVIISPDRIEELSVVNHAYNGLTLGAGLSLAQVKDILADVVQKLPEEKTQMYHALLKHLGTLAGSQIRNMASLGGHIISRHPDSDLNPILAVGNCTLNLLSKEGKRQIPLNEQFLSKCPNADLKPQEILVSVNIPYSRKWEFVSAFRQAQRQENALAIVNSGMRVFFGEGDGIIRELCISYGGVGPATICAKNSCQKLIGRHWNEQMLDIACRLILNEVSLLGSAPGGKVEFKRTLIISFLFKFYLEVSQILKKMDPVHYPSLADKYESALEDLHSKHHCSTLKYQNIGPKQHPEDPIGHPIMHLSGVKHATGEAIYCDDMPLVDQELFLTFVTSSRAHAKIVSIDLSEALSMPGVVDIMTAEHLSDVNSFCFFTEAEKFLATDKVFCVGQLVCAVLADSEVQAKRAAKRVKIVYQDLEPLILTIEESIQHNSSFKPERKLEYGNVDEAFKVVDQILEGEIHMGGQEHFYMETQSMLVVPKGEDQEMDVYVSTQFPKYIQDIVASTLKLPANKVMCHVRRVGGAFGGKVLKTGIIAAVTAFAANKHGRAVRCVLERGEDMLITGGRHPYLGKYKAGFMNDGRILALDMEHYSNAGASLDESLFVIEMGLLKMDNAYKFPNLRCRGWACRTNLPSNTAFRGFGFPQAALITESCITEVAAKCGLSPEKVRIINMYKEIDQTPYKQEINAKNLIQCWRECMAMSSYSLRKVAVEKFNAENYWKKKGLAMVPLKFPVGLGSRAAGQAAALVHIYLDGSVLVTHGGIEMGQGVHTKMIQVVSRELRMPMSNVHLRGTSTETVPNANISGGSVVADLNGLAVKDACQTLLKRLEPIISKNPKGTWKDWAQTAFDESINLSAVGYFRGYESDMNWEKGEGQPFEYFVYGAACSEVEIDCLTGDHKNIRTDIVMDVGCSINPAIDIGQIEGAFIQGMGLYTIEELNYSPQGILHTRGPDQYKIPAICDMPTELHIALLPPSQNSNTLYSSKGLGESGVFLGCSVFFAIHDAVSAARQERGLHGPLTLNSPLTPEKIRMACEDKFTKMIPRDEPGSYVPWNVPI

Aldehyde oxidase [2] = target: T1, Aldehyde oxidase; assay: Drug level in human liver S9 fraction assessed as aldehyde oxidase-mediated compound formation treated with 10 uM N-carbamimidoyl-5-cyclopropyl-1-(quinolin-6-yl)-1H-pyrazole-4-carboxamide by spectrometry
Aldehyde oxidase [3] = target: T1, Aldehyde oxidase; assay: Drug level in human liver S9 fraction assessed as aldehyde oxidase-mediated compound formation treated with 10 uM 1-(1H-benzo[d]imidazol-4-yl)-N-carbamimidoyl-5-cyclopropyl-1H-pyrazole-4-carboxamide by spectrometry

Drug metabolism (Aldehyde oxidase [1]): metabolite_detected
Compound: N=C(N)NC(=O)c1cnn(-c2cc(=O)[nH]c3ccccc23)c1C1CC1

Drug metabolism (Aldehyde oxidase [2]): metabolite_detected
Compound: N=C(N)NC(=O)c1cnn(-c2ccc3[nH]c(=O)ccc3c2)c1C1CC1

Drug metabolism (Aldehyde oxidase [3]): metabolite_detected
Compound: N=C(N)NC(=O)c1cnn(-c2cccc3[nH]c(=O)[nH]c23)c1C1CC1
